Results taken from PubChem BioAssay AID1845217 (Molecular Pharmacology Branch, DTP, NCI, 2023).

System: VA-ES-BJ tumor spheroid viability
Experiment: Anticancer human tumor VA-ES-BJ cell line growth inhibition;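 also: spheroids exposed to compounds for seven days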;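 as to viability, T/C: percent of DMSO vehicle control viability so 100% = untreated growth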
Conditions: spheroids with HUVEC and MSC; for IC50: curve of first compound; for viability, T/C: stronger effect = lower value
In short: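 Complex tumor spheroids combined malignant cells with endothelial cells and mesenchymal stem cells. DNA-damaging drugs and DNA repair inhibitors were tested alone and in combination, at half-log dilutions down from clinical Cmax (top 10 microM if Cmax unknown), 0.25% DMSO final.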

[1] = second compound 1 µM, first compound 0.00949 µM
[2] = second compound 1 µM, first compound 0.03 µM
[3] = second compound 1 µM, first compound 0.0949 µM
[4] = second compound 1 µM, first compound 0.3 µM
[5] = second compound 1 µM, first compound 0.949 µM
[6] = second compound 1 µM, first compound 3 µM
[7] = second compound 3.16 µM, first compound 0.00949 µM
[8] = second compound 3.16 µM, first compound 0.03 µM
[9] = second compound 3.16 µM, first compound 0.0949 µM
[10] = second compound 3.16 µM, first compound 0.3 µM
[11] = second compound 3.16 µM, first compound 0.949 µM
[12] = second compound 3.16 µM, first compound 3 µM
[13] = second compound 10 µM, first compound 0.00949 µM
[14] = second compound 10 µM, first compound 0.03 µM
[15] = second compound 10 µM, first compound 0.0949 µM
[16] = second compound 10 µM, first compound 0.3 µM
[17] = second compound 10 µM, first compound 0.949 µM
[18] = second compound 10 µM, first compound 3 µM
[19] = second compound 31.6 µM, first compound 0.00949 µM
[20] = second compound 31.6 µM, first compound 0.03 µM
[21] = second compound 31.6 µM, first compound 0.0949 µM
[22] = second compound 31.6 µM, first compound 0.3 µM
[23] = second compound 31.6 µM, first compound 0.949 µM
[24] = second compound 31.6 µM, first compound 3 µM
[25] = second compound 100 µM, first compound 0.00949 µM
[26] = second compound 100 µM, first compound 0.03 µM
[27] = second compound 100 µM, first compound 0.0949 µM
[28] = second compound 100 µM, first compound 0.3 µM
[29] = second compound 100 µM, first compound 0.949 µM
[30] = second compound 100 µM, first compound 3 µM

CNCc1ccc(-c2cc(-c3nc(-c4ccc(S(=O)(=O)C(C)C)cc4)cnc3N)on2)cc1 + Cn1nnc2c(C(N)=O)ncn2c1=O showed an IC50 (second compound 1 µM) of 404 nM, an IC50 (second compound 3.16 µM) of 370 nM and an IC50 (second compound 10 µM) of 339 nM. For the same molecule, the IC50 (second compound 31.6 µM) was 289 nM, the IC50 (second compound 100 µM) was 188 nM and the viability, T/C [1] was 87.8%. For the same molecule, the viability, T/C [2] was 82%, the viability, T/C [3] was 84% and the viability, T/C [4] was 63.3%. For the same molecule, the viability, T/C [5] was 11.8%, the viability, T/C [6] was 2.45% and the viability, T/C [7] was 85.5%. The viability, T/C [8] was 85.3%, the viability, T/C [9] was 74.4% and the viability, T/C [10] was 59.9%. The viability, T/C [11] was 12.8%, the viability, T/C [12] was 1.99% and the viability, T/C [13] was 86.9%. The viability, T/C [14] was 92.2%, the viability, T/C [15] was 79.1% and the viability, T/C [16] was 56.1%. It also gave a viability, T/C [17] of 10.4%, a viability, T/C [18] of 2.81% and a viability, T/C [19] of 91.1%. For the same molecule, the viability, T/C [20] was 85%, the viability, T/C [21] was 72.7% and the viability, T/C [22] was 53.5%. For the same molecule, the viability, T/C [23] was 10.2%, the viability, T/C [24] was 3.57% and the viability, T/C [25] was 95.6%. It also gave a viability, T/C [26] of 76.7%, a viability, T/C [27] of 68% and a viability, T/C [28] of 41.7%. It also gave a viability, T/C [29] of 11.7% and a viability, T/C [30] of 2.21%.
Work on Cc1sc2c(c1C)C(c1ccc(Cl)cc1)=NC(CC(=O)Nc1ccc(O)cc1)c1nnc(C)n1-2 (stereo not given) + Cn1nnc2c(C(N)=O)ncn2c1=O yielded an IC50 (second compound 1 µM) of 103 nM, an IC50 (second compound 3.16 µM) of 93.7 nM and an IC50 (second compound 10 µM) of 83.1 nM. The IC50 (second compound 31.6 µM) was 80.6 nM, the IC50 (second compound 100 µM) was 68.6 nM and the viability, T/C [1] was 83.5%. It also gave a viability, T/C [2] of 69%, a viability, T/C [3] of 51.6% and a viability, T/C [4] of 33.5%. The viability, T/C [5] was 25.9%, the viability, T/C [6] was 17.1% and the viability, T/C [7] was 81.3%. For the same molecule, the viability, T/C [8] was 68.3%, the viability, T/C [9] was 50.7% and the viability, T/C [10] was 31.1%. The viability, T/C [11] was 19.9%, the viability, T/C [12] was 17.7% and the viability, T/C [13] was 81.2%. For the same molecule, the viability, T/C [14] was 65.2%, the viability, T/C [15] was 49.1% and the viability, T/C [16] was 30.8%. The viability, T/C [17] was 24.8%, the viability, T/C [18] was 15.8% and the viability, T/C [19] was 81.1%. The viability, T/C [20] was 61.1%, the viability, T/C [21] was 51.2% and the viability, T/C [22] was 31.9%. For the same molecule, the viability, T/C [23] was 21.3%, the viability, T/C [24] was 12.4% and the viability, T/C [25] was 91.2%. The viability, T/C [26] was 60.1%, the viability, T/C [27] was 47.5% and the viability, T/C [28] was 29.5%. For the same molecule, the viability, T/C [29] was 14.4% and the viability, T/C [30] was 7.67%.
With Cn1ncnc1[C@H]1c2n[nH]c(=O)c3cc(F)cc(c23)N[C@@H]1c1ccc(F)cc1 + Cn1nnc2c(C(N)=O)ncn2c1=O the IC50 (second compound 1 µM) was 537 nM, the IC50 (second compound 3.16 µM) was 216 nM and the IC50 (second compound 10 µM) was 57.3 nM. It also gave an IC50 (second compound 31.6 µM) of under 9.49 nM, an IC50 (second compound 100 µM) of under 9.49 nM and a viability, T/C [1] of 97.4%. For the same molecule, the viability, T/C [2] was 90.7%, the viability, T/C [3] was 81.8% and the viability, T/C [4] was 68.7%. It also gave a viability, T/C [5] of 33.1%, a viability, T/C [6] of 7.3% and a viability, T/C [7] of 94.4%. It also gave a viability, T/C [8] of 51.4%, a viability, T/C [9] of 68.4% and a viability, T/C [10] of 55.3%. The viability, T/C [11] was 25.1%, the viability, T/C [12] was 7.36% and the viability, T/C [13] was 72.3%. For the same molecule, the viability, T/C [14] was 58.8%, the viability, T/C [15] was 42.8% and the viability, T/C [16] was 26.3%. The viability, T/C [17] was 10.4%, the viability, T/C [18] was 7.26% and the viability, T/C [19] was 33%. The viability, T/C [20] was 20.1%, the viability, T/C [21] was 13.4% and the viability, T/C [22] was 10.1%. For the same molecule, the viability, T/C [23] was 7.36%, the viability, T/C [24] was 5.8% and the viability, T/C [25] was 12.1%. For the same molecule, the viability, T/C [26] was 7.76%, the viability, T/C [27] was 7.62% and the viability, T/C [28] was 7.16%. For the same molecule, the viability, T/C [29] was 6.55% and the viability, T/C [30] was 5.96%.
